This note sets out measurements from article PMC9609173, “Preparation and Evaluation of [^18F]AlF-NOTA-NOC for PET Imaging of Neuroendocrine Tumors: Comparison to [^68Ga]Ga-DOTA/NOTA-NOC” (Molecules, 2022).

For one data set, the system named is AR42J xenograft. In kind it is in vivo, mice. The method, then: All animal experiments were planned and performed following the national legislation by the Animal Experiments Inspectorate in Denmark. Male SCID (severe combined immunodeficiency) mice (bred in-house, age 9–12 weeks) had access to water and chow ad libitum. Anesthesia with approximately 2% isoflurane in 100% oxygen was applied and the mice were inoculated subcutaneously in the left shoulder with 1 × 10^6 AR42J cells 12–15 days before the experiment (tumor weight 364 ± 58 mg). For biodistribution, the AR42J xenografted mice were injected in the tail vein with [^68Ga]Ga-NOTA-NOC (50.2 ± 5 pmol, 627 ± 116 kBq, n = 4), [^68Ga]Ga-DOTA-NOC (42.5 ± 6 pmol, 509 ± 24 kBq, n = 3), or [^18F]AlF-NOTA-NOC (47.0 ± 10 pmol, 1017 ± 279 kBq, n = 3 for each time point). After 1 or 3 h, the mice were sacrificed and the organs were collected and weighed. The organ radioactivities were quantified in an Atomlab 950 well spectrometer which was cross calibrated to a high-purity germanium detector. The tissue uptake of injected radioactivity was determined as a percentage of the applied total injected activity per gram, %IA/g.
GraphPad Prism 6.07 was applied for statistical analysis and data fitting. One-way ANOVA and Bonferroni correction for multiple comparisons were applied for each organ. P values considered statistically significant were * p ≤ 0.05, ** p ≤ 0.01, *** p ≤ 0.001, and **** p ≤ 0.0001. The Student’s two-tailed t-test was applied for exploration statistics within a single organ-to-tumor comparison for one time point. Data are presented as the mean ± SEM.

Data set [1] can be described thus: Determination of LogP (1-octanol/Dulbecco's PBS partition). In kind it is physicochemical. The method, then: Radiolabeled peptide (5 µL, 3–5 MBq) was added to Dulbecco’s PBS (495 µL) along with 1-Octanol (500 µL) in an Eppendorf tube. The tubes were vortexed for 5 min and centrifuged to separate phases. A volume of 10 µL of each phase was transferred to new Eppendorf tubes. The fractions were counted in an well counter (Atomlab 950) and LogP were calculated [[…]].

Where a SMILES comes first, the peptide text is derived from it. Bridges are numbered along the chain shown (N, C = ends). [ ]: non-standard residue; d: D form. The star is where a group is joined. DOTA = O=C(O)CN1CCN(CC(=O)O)CCN(CC(=O)*)CCN(CC(=O)O)CC1; 1Nal = N[C@@H](Cc1cccc2ccccc12)C(=O)O; Thr(ol) = C[C@@H](O)[C@H](N)CO

As to `C[C@@H](O)[C@@H]1NC(=O)[C@H](CCCCN)NC(=O)[C@@H](Cc2c[nH]c3ccccc23)NC(=O)[C@H](Cc2cccc3ccccc23)NC(=O)[C@@H](NC(=O)[C@@H](Cc2ccccc2)NC(=O)CN2CCN(CC(=O)O)CCN(CC(=O)O)CCN(CC(=O)O)CC2)CSSC[C@@H](C(=O)N[C@H](CO)[C@@H](C)O)NC1=O` [[^68Ga]Ga-DOTA-NOC, metal not drawn, reference compound] ({DOTA}-[dF]C[1Nal][dW]KTC[Thr(ol)]; disulfide 2-7 (inferred)), in the data set on AR42J xenograft (AR42J xenograft mice), the “tumor-to-blood ratio, 1 h p.i.” value stood at 35 and the “tumor-to-liver ratio, 1 h p.i.” value came to 3.7. Moreover, in the data set with AR42J xenograft (male SCID mice, subcutaneous AR42J xenograft, tail vein injection app. 45 pmol, n = 3-4, mean ± SEM), the “tumor uptake at 1 h p.i.” value came to 26.4 ± 10.8 % ID/g. Further, the “partition coefficient, LogP” value in data set [1] is −1.42.
